According to article PMC11571207, “Stereorandomized Oncocins with Preserved Ribosome Binding and Antibacterial Activity” (Journal of Medicinal Chemistry, 2024):
Values after ≈ are worked out from the molar mass of the structure shown. Where two headings read alike, the source gives them in different places. Non-standard residues stand in square brackets, D forms with d. Residues, ends and D or L forms follow the SMILES beside them. No end group written: not given here.

Legend:
[1] = system: human red blood cells; test: Hemolysis assay, minimum hemolytic concentration; conditions: for Haemolysis on hRBC, MHC: 2.5% human red blood cells (final) in 10 mM phosphate, 150 mM NaCl, pH 7.4, 25 °C, 4 h, visual inspection; for MHC human red blood cells: supplement CSV
[2] = system: P. aeruginosa ZEM9A; test: microbe, parasite or virus in culture; conditions: for MIC P. aeruginosa ZEM9A, 12.5% MHB / MIC P. aeruginosa ZEM9A, full MHB: clinical isolate, 16–20 h at 37 °C; for MIC P. aeruginosa ZEM9A, 12.5% MHB: 12.5% MHB pH 7.4; for MIC P. aeruginosa ZEM9A, full MHB: full MHB pH 7.4; for MIC P. aeruginosa ZEM9A: supplement CSV
Procedure, shortened: (§1)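 Minimal inhibitory concentrations come from broth microdilution in MH medium, with a top peptide concentration of 64 μg/mL halved serially.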

[3] = system: P. aeruginosa PA14 2P4 (pmrB); test: microbe, parasite or virus in culture; conditions: for MIC P. aeruginosa PA14 2P4 (pmrB), 12.5% MHB: 12.5% MHB pH 7.4; for MIC P. aeruginosa PA14 2P4: supplement CSV
Procedure, shortened: as §1

[4] = system: P. aeruginosa PA14; test: microbe, parasite or virus in culture; conditions: for MIC P. aeruginosa PA14, 12.5% MHB: 12.5% MHB pH 7.4; for MIC P. aeruginosa PA14, 12.5% MHB / MIC P. aeruginosa PA14, full MHB: 16–20 h at 37 °C, two different duplicate MIC determinations; for MIC P. aeruginosa PA14, full MHB: full MHB pH 7.4; for MIC P. aeruginosa PA14: supplement CSV
Procedure, shortened: as §1

[5] = system: K. pneumoniae OXA-48; test: microbe, parasite or virus in culture; conditions: for MIC K. pneumoniae OXA-48, 12.5% MHB / MIC K. pneumoniae OXA-48, full MHB: carbapenem-resistant, 16–20 h at 37 °C; for MIC K. pneumoniae OXA-48, 12.5% MHB: 12.5% MHB pH 7.4; for MIC K. pneumoniae OXA-48, full MHB: full MHB pH 7.4; for MIC K. pneumoniae OXA-48: supplement CSV
Procedure, shortened: as §1

[6] = system: E. cloacae; test: microbe, parasite or virus in culture; conditions: for MIC E. cloacae, 12.5% MHB: 12.5% MHB pH 7.4; for MIC E. cloacae, 12.5% MHB / MIC E. cloacae, full MHB: 16–20 h at 37 °C; for MIC E. cloacae, full MHB: full MHB pH 7.4; for MIC E. cloacae: supplement CSV
Procedure, shortened: as §1

[7] = system: P. aeruginosa ZEM-1A; test: microbe, parasite or virus in culture; conditions: for MIC P. aeruginosa ZEM-1A, 12.5% MHB / MIC P. aeruginosa ZEM-1A, full MHB: clinical isolate, 16–20 h at 37 °C, cells marked c: single measurement (in duplicates); for MIC P. aeruginosa ZEM-1A, 12.5% MHB: 12.5% MHB pH 7.4; for MIC P. aeruginosa ZEM-1A, full MHB: full MHB pH 7.4; for MIC P. aeruginosa ZEM-1A: supplement CSV
Procedure, shortened: as §1

[8] = system: P. aeruginosa PA14 4.18 (pmrB); conditions: for MIC P. aeruginosa PA14 4.18 (pmrB), 12.5% MHB / MIC P. aeruginosa PA14 4.18 (pmrB), full MHB: polymyxin B resistant strain, 16–20 h at 37 °C; for MIC P. aeruginosa PA14 4.18 (pmrB), 12.5% MHB: 12.5% MHB pH 7.4; for MIC P. aeruginosa PA14 4.18 (pmrB), full MHB: full MHB pH 7.4; for MIC P. aeruginosa PA14 4.18: supplement CSV
[9] = system: P. aeruginosa PA14 4.13 (phoQ); conditions: for MIC P. aeruginosa PA14 4.13 (phoQ), 12.5% MHB / MIC P. aeruginosa PA14 4.13 (phoQ), full MHB: polymyxin B resistant strain, 16–20 h at 37 °C; for MIC P. aeruginosa PA14 4.13 (phoQ), 12.5% MHB: 12.5% MHB pH 7.4; for MIC P. aeruginosa PA14 4.13 (phoQ), full MHB: full MHB pH 7.4; for MIC P. aeruginosa PA14 4.13: supplement CSV
[10] = system: E. coli BW25113 WT; conditions: Table S1, 16-20 h at 37 °C; for MIC E. coli BW25113 WT, 12.5% MH: 12.5% Müller-Hinton medium pH 7.4; for MIC E. coli BW25113 WT, Full MH: full Müller-Hinton medium pH 7.4
Experimental: (§2) Minimum inhibitory concentration assay
(§3) Antimicrobial activity was assayed against P. aeruginosa PAO1, K. pneumoniae NCTC418, E. coli W3110, A. baumannii ATCC 19606, methicillin-resistant S. aureus COL (MRSA), and for selected peptides on P. aeruginosa PA14 and the polymyxin-B-resistant derivative PA14 2P4, as well as the clinical isolates ZEM-1A and ZEM9A, K. pneumoniae OXA-48, S. aureus Newman, Enterobacter cloacae and Burkholderia cenocepacia. The minimal inhibitory concentration (MIC) was determined by using broth microdilution method. A colo ny of bacteria was picked and grown in Luria-Bertani (LB) medium overnight at 37°C. For E. coli BW25113 sbmA::kan the medium was supplemented with 25 mg/L of kanamycin. The next day, the culture was then regrown in LB medium to log phase (OD600 = 0.6 to 0.8), which lasted approximately 4 h, and diluted to an OD600 of 0.022 in the desired medium. Stock solutions of 1 mg/mL of the samples were prepared in sterilized milliQ water and diluted to the beginning concentration of 64 μg/mL in 300 μL Mueller Hinton (MH)-medium. The diluted samples were added to first well of 96-well microtiter plate (TPP, untreated, Faust Laborbedarf, AG, Schaffhausen) and diluted serially by ½. Finally, 4 μL of the bacterial suspension was inoculated into the sample solutions (150 μL/well) with a final inoculation of about 5∙10^5 CFU/mL. The plates were then incubated at 37°C for 15-18h. For each assay, sterility (broth only) and growth control (broth with bacterial inoculum, without antibiotics) were checked with two columns in the plate. The next day, 15 μL of 3-(4,5-dimethylthiazol-2-yl)-2,5-diphenyltetrazolium bromide (MTT) was added to each well of the plate, such a way that MIC was defined as the lowest concentration of the peptide that inhibited visible growth of the tested […]
(§4) Table S1. Activity of stereorandomized and diastereomeric oncocins against E. coli BW25113 WT and BW25113 sbmA::kan mutant in full and 12.5% MH, at pH 7.4. […]
(§5) a) Minimum inhibitory concentration (MIC, μg/mL) was determined on E. coli BW25113 WT and […]

[11] = system: E. coli BW25113 sbmA::kan; conditions: Table S1, sbmA::kan mutant, 16-20 h at 37 °C; for MIC E. coli BW25113 SbmA-, 12.5% MH: 12.5% Müller-Hinton medium pH 7.4; for MIC E. coli BW25113 SbmA-, Full MH: full Müller-Hinton medium pH 7.4
Experimental: as §2, §3, §4, §5

[12] = polymyxin B resistant strain, 16–20 h at 37 °C

Compound	Haemolysis on hRBC, MHC [1]	MHC human red blood cells [1]	MIC P. aeruginosa ZEM9A, 12.5% MHB [2]	MIC P. aeruginosa ZEM9A, full MHB [2]	MIC P. aeruginosa ZEM9A ([2]; 12.5% MH pH 7.4)	MIC P. aeruginosa ZEM9A ([2]; full MH pH 7.4)	MIC P. aeruginosa PA14 2P4 (pmrB), 12.5% MHB [3, 12]	MIC P. aeruginosa PA14 2P4 ([3]; 12.5% MH pH 7.4)	MIC P. aeruginosa PA14, 12.5% MHB [4]	MIC P. aeruginosa PA14, full MHB [4]	MIC P. aeruginosa PA14 ([4]; 12.5% MH pH 7.4)	MIC P. aeruginosa PA14 ([4]; full MH pH 7.4)	MIC K. pneumoniae OXA-48, 12.5% MHB [5]	MIC K. pneumoniae OXA-48, full MHB [5]	MIC K. pneumoniae OXA-48 ([5]; 12.5% MH pH 7.4)	MIC K. pneumoniae OXA-48 ([5]; full MH pH 7.4)	MIC E. cloacae, 12.5% MHB [6]	MIC E. cloacae, full MHB [6]	MIC E. cloacae ([6]; 12.5% MH pH 7.4)	MIC E. cloacae ([6]; full MH pH 7.4)	also measured
CC[C@H](C)[C@H](NC(=O)[C@@H](CCCNC(=N)N)NC(=O)[C@H](CCCNC(=N)N)NC(=O)[C@@H]1CCCN1C(=O)[C@@H]1CCCN1C(=O)[C@H](CCCNC(=N)N)NC(=O)[C@@H]1CCCN1C(=O)[C@H](CCCNC(=N)N)NC(=O)[C@@H]1CCCN1C(=O)[C@H](CC(C)C)NC(=O)[C@H](Cc1ccc(O)cc1)NC(=O)[C@@H]1CCCN1C(=O)[C@@H]1CCCN1C(=O)[C@H](CCCCN)NC(=O)[C@H](CC(=O)O)NC(=O)[C@@H](N)C(C)C)C(=O)N[C@@H](Cc1ccc(O)cc1)C(=O)N[C@@H](CC(N)=O)C(=O)N[C@H](CCCNC(=N)N)C(N)=O [Onc112, reference compound] (H-VDKPPYLPRPRPPR[dR]IYN[dR]-NH2)	>1000 µg/mL	>1000 µg/mL	8 µg/mL (≈ 3.35 µM)	> 64 µg/mL	8 µg/mL (≈ 3.35 µM)	>64 µg/mL	4 to 8 µg/mL	4 to 8 µg/mL	16 µg/mL (≈ 6.69 µM)	> 32 µg/mL	16 µg/mL (≈ 6.69 µM)	>32 µg/mL	1 µg/mL (≈ 0.418 µM)	8 µg/mL (≈ 3.35 µM)	1 µg/mL (≈ 0.418 µM)	8 µg/mL (≈ 3.35 µM)	1 µg/mL (≈ 0.418 µM)	2 µg/mL (≈ 0.837 µM)	1 µg/mL (≈ 0.418 µM)	2 µg/mL (≈ 0.837 µM)	MIC P. aeruginosa ZEM-1A, 12.5% MHB [7]: 8 µg/mL (≈ 3.35 µM); MIC P. aeruginosa ZEM-1A, full MHB [7]: 32 µg/mL (≈ 13.4 µM); MIC P. aeruginosa ZEM-1A ([7]; 12.5% MH pH 7.4): 8 µg/mL (≈ 3.35 µM); MIC P. aeruginosa ZEM-1A ([7]; full MH pH 7.4): 32 µg/mL (≈ 13.4 µM); MIC P. aeruginosa PA14 4.18 (pmrB), 12.5% MHB [8]: 16 µg/mL (≈ 6.69 µM); MIC P. aeruginosa PA14 4.18 (pmrB), full MHB [8]: > 32 µg/mL; MIC P. aeruginosa PA14 4.18 ([8]; 12.5% MH pH 7.4): 16 µg/mL (≈ 6.69 µM); MIC P. aeruginosa PA14 4.18 ([8]; full MH pH 7.4): >32 µg/mL; MIC P. aeruginosa PA14 4.13 (phoQ), 12.5% MHB [9]: 16 µg/mL (≈ 6.69 µM); MIC P. aeruginosa PA14 4.13 (phoQ), full MHB [9]: > 32 µg/mL; MIC P. aeruginosa PA14 4.13 ([9]; 12.5% MH pH 7.4): 16 µg/mL (≈ 6.69 µM); MIC P. aeruginosa PA14 4.13 ([9]; full MH pH 7.4): >32 µg/mL; MIC E. coli BW25113 WT, 12.5% MH [10]: 4 µg/mL (≈ 1.67 µM); MIC E. coli BW25113 WT, Full MH [10]: 16 µg/mL (≈ 6.69 µM); MIC E. coli BW25113 SbmA-, 12.5% MH [11]: 4 µg/mL (≈ 1.67 µM); MIC E. coli BW25113 SbmA-, Full MH [11]: > 64 µg/mL
VDKPPYLPRPRPPRRIYNR [sr9Cterm-Onc] (VDKPPYLPRPRPPRRIYNR-NH2; also: residues 11-19 stereorandomized (1:1 L/D mixture))	>1000 µg/mL	>1000 µg/mL	8 µg/mL	> 64 µg/mL	8 µg/mL	>64 µg/mL	4 µg/mL	4 µg/mL	8 µg/mL	> 64 µg/mL	8 µg/mL	>64 µg/mL	4 µg/mL	32 µg/mL	4 µg/mL	32 µg/mL	1 µg/mL	32 µg/mL	1 µg/mL	32 µg/mL	MIC P. aeruginosa PA14 2P4 (pmrB), full MHB ([3]; polymyxin B resistant strain, full MHB pH 7.4, 16–20 h at 37 °C): > 64 µg/mL; MIC P. aeruginosa PA14 2P4 ([3]; full MH pH 7.4): >64 µg/mL; MIC P. aeruginosa ZEM-1A, 12.5% MHB [7]: 4 to 8 µg/mL; MIC P. aeruginosa ZEM-1A, full MHB [7]: 64 µg/mL; MIC P. aeruginosa ZEM-1A ([7]; 12.5% MH pH 7.4): 4 to 8 µg/mL; MIC P. aeruginosa PA14 4.18 (pmrB), 12.5% MHB [8]: 8 µg/mL; MIC P. aeruginosa PA14 4.18 (pmrB), full MHB [8]: 64 µg/mL; MIC P. aeruginosa PA14 4.18 ([8]; 12.5% MH pH 7.4): 8 µg/mL; MIC P. aeruginosa PA14 4.18 ([8]; full MH pH 7.4): 64 µg/mL; MIC P. aeruginosa PA14 4.13 (phoQ), 12.5% MHB [9]: 8 µg/mL; MIC P. aeruginosa PA14 4.13 (phoQ), full MHB [9]: 64 µg/mL; MIC P. aeruginosa PA14 4.13 ([9]; 12.5% MH pH 7.4): 8 µg/mL; MIC P. aeruginosa PA14 4.13 ([9]; full MH pH 7.4): 64 µg/mL; MIC E. coli BW25113 WT, 12.5% MH [10]: 4 µg/mL; MIC E. coli BW25113 WT, Full MH [10]: 32 µg/mL; MIC E. coli BW25113 SbmA-, 12.5% MH [11]: 8 µg/mL; MIC E. coli BW25113 SbmA-, Full MH [11]: > 64 µg/mL
